These results are taken from US20190177771A1, “PNA PROBE FOR DISCRIMINATION OF QUINOLONE ANTIBIOTIC RESISTANT BACTERIA AND METHOD FOR DISCRIMINATION OF ANTIBIOTIC RESISTANT BACTERIA USING THE SAME” (priority 2017, published 2019).

One assay concerns E. tarda. The assay can be described thus: MIC measurement of E. tarda strains for quinolone antibiotics. The format is cell-based. Conditions: Edwardsiella tarda. How it is done: (§1) Using S. parauberis, E. tarda, and V. harveyi samples stored in the National Institute of Fisheries Science, MIC values were measured.
A further assay has as its system V. harveyi. Put plainly: MIC measurement of V. harveyi strains for quinolone antibiotics. The format is cell-based, Vibrio harveyi. The note with it: for MIC: Vibrio harveyi. How it is done:
as §1

For another assay, the system named is S. parauberis. The assay can be described thus: MIC measurement of S. parauberis strains for quinolone antibiotic. The format is cell-based. The note with it: Streptococcus parauberis. The method, then:
as §1

Where [1] appears, read: E. tarda strain FP2074, gyrA Arg83.
Setting [2] is: E. tarda strain FP2130, gyrA Arg83.
[3] abbreviates: E. tarda strain FP2240, gyrA Ser83.
Setting [4] is: E. tarda strain FP2243, gyrA Arg83.
Where [5] appears, read: E. tarda strain FP3071, gyrA Arg83.
Where [6] appears, read: E. tarda strain FP3139, gyrA Ile83.
Setting [7] is: E. tarda strain FPa4445, gyrA Arg83.
Setting [8] is: V. harveyi strain FP4541, gyrA Ile83.
The mark [9] stands for this setting: V. harveyi strain FP3023, gyrA Ser83.
[10] abbreviates: V. harveyi strain FP3031, gyrA Ser83.
Where [11] appears, read: V. harveyi strain FP3457, gyrA Ser83.
Setting [12] is: V. harveyi strain FP7021, gyrA Ser83.
Where [13] appears, read: V. harveyi strain FP8045, gyrA Ser83.

Values after ≈ are worked out from the molar mass of the structure shown. Some results are limits rather than exact numbers.

For the molecule `CC1CCc2cc(F)cc3c(=O)c(C(=O)O)cn1c23` (centres unmarked) [Flumequine], the minimum inhibitory concentration (MIC) is 8 µg/mL (≈ 30.6 µM) against E. tarda (setting [1]); 64 µg/mL (≈ 245 µM) with E. tarda (setting [2]); 1 µg/mL (≈ 3.83 µM) against E. tarda (setting [3]); 32 µg/mL (≈ 122 µM) with E. tarda (setting [4]); 16 µg/mL (≈ 61.2 µM) against E. tarda (setting [5]); not below 512 µg/mL in the assay on E. tarda (setting [6]). Moreover, the MIC turned out to be 32 µg/mL (≈ 122 µM) in the assay with E. tarda (setting [7]); 1 µg/mL (≈ 3.83 µM) in the assay on V. harveyi (setting [9]); 2 µg/mL (≈ 7.66 µM) against V. harveyi (setting [10]); 2 µg/mL (≈ 7.66 µM) against V. harveyi (setting [11]); 16 µg/mL (≈ 61.2 µM) in the assay on V. harveyi (setting [8]); 1 µg/mL (≈ 3.83 µM) in the assay on V. harveyi (setting [12]). This molecule also had a minimal inhibitory concentration (MIC) against V. harveyi (setting [13]) of 2 µg/mL (≈ 7.66 µM). Moreover, the “susceptibility of the strain to the antibiotic, in words” value in the assay with V. harveyi (setting [8]) is reported as “resistance”.

Regarding `CCn1cc(C(=O)O)c(=O)c2cc3c(cc21)OCO3` [Oxolinic acid], the minimal inhibitory concentration (MIC) in the assay on E. tarda (setting [1]) is 4 µg/mL (≈ 15.3 µM); against E. tarda (setting [2]), 64 µg/mL (≈ 245 µM); against E. tarda (setting [3]) it was less than 0.25 µg/mL; in the assay on E. tarda (setting [4]), 16 µg/mL (≈ 61.2 µM); against E. tarda (setting [5]) it was 8 µg/mL (≈ 30.6 µM); against E. tarda (setting [6]), 256 µg/mL (≈ 980 µM). The minimal inhibitory concentration (MIC) with E. tarda (setting [7]) was 8 µg/mL (≈ 30.6 µM); against V. harveyi (setting [9]) it was 1 µg/mL (≈ 3.83 µM); in the assay on V. harveyi (setting [10]), 1 µg/mL (≈ 3.83 µM); in the assay on V. harveyi (setting [11]), 2 µg/mL (≈ 7.66 µM); in the assay on V. harveyi (setting [8]) it was 8 µg/mL (≈ 30.6 µM); in the assay with V. harveyi (setting [12]), 1 µg/mL (≈ 3.83 µM). In the assay with V. harveyi (setting [13]), this molecule showed a minimal inhibitory concentration (MIC) of 1 µg/mL (≈ 3.83 µM). The “susceptibility of the strain to the antibiotic, in words” value in the assay on V. harveyi (setting [8]) is “resistance”.

For the molecule `O=C(O)c1cn(C2CC2)c2cc(N3CCNCC3)c(F)cc2c1=O` [Cipfloxacin, ciprofloxacin], the MIC against E. tarda (setting [1]) is 0.13 µg/mL (≈ 0.392 µM); in the assay with E. tarda (setting [2]), 1 µg/mL (≈ 3.02 µM); in the assay on E. tarda (setting [3]) it was less than 0.06 µg/mL; against E. tarda (setting [4]), 0.5 µg/mL (≈ 1.51 µM); in the assay on E. tarda (setting [5]), 0.25 µg/mL (≈ 0.754 µM); in the assay on E. tarda (setting [6]) it was 4 µg/mL (≈ 12.1 µM). The minimum inhibitory concentration (MIC) against E. tarda (setting [7]) was found to be 2 µg/mL (≈ 6.04 µM); in the assay on S. parauberis (S. parauberis strain FP3059, gyrA Ser81) it was 0.13 µg/mL (≈ 0.392 µM); in the assay with S. parauberis (S. parauberis strain FP3227, gyrA Ser81), 1 µg/mL (≈ 3.02 µM); against S. parauberis (S. parauberis strain FP4029, gyrA Ser81) it was 0.5 µg/mL (≈ 1.51 µM); against S. parauberis (S. parauberis strain FP4031, gyrA Ser81), 0.25 µg/mL (≈ 0.754 µM); against S. parauberis (S. parauberis strain FP5227, gyrA Ser81) it was 0.06 µg/mL (≈ 0.181 µM). The same molecule registered an MIC against S. parauberis (S. parauberis strain FPa4533, gyrA Leu81) of 2 µg/mL (≈ 6.04 µM).

By MIC is commonly meant the lowest concentration found to suppress growth.
